pEC50: −log10 of the molar value. Some results are limits rather than exact numbers.

The target of the assay is T1, KATP channels (Homo sapiens, UniProt O60706+Q14654).
T1 construct: TE671 human medulloblastoma cells were obtained from ATCC; host or cells: TE671 human medulloblastoma cells
T1 sequence (O60706 1-1549 isoform O60706-2): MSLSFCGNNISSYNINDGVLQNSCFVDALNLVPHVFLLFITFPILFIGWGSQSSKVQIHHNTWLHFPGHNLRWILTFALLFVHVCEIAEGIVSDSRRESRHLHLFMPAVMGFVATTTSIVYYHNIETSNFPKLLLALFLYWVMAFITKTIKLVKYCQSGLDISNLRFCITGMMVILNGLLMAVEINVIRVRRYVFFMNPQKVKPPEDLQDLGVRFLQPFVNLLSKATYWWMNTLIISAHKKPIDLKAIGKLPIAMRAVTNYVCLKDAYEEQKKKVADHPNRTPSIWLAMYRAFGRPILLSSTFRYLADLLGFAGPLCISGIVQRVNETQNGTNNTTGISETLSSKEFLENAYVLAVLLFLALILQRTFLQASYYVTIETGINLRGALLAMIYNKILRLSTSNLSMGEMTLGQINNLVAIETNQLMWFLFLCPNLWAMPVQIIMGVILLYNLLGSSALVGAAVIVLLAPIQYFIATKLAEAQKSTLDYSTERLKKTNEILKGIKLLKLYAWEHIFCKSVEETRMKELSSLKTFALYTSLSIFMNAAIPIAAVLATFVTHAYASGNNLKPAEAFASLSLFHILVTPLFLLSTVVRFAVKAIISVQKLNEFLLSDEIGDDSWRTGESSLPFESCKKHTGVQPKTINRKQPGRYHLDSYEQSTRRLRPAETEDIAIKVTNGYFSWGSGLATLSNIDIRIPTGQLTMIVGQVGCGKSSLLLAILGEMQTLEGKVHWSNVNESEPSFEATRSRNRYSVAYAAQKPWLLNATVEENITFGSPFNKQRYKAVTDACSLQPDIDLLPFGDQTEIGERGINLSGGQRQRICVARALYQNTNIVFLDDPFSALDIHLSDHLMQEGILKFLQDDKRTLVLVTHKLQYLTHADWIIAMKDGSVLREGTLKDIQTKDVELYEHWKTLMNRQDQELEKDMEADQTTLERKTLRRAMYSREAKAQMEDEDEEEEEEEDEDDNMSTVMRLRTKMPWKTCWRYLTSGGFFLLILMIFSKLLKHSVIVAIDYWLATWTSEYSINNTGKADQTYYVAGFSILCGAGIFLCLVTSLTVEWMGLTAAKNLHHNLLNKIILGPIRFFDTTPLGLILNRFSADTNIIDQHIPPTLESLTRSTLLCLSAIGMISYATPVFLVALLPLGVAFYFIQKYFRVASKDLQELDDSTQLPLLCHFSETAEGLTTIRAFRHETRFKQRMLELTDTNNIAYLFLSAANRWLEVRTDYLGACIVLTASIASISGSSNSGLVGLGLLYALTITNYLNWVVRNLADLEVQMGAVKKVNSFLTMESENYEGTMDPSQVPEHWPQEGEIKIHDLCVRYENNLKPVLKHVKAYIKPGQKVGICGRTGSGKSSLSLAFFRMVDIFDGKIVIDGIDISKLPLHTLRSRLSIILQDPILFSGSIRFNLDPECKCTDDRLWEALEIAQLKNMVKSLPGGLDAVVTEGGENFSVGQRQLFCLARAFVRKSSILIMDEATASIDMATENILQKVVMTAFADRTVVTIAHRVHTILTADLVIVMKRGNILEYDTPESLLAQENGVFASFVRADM
T1 sequence (Q14654 whole entry): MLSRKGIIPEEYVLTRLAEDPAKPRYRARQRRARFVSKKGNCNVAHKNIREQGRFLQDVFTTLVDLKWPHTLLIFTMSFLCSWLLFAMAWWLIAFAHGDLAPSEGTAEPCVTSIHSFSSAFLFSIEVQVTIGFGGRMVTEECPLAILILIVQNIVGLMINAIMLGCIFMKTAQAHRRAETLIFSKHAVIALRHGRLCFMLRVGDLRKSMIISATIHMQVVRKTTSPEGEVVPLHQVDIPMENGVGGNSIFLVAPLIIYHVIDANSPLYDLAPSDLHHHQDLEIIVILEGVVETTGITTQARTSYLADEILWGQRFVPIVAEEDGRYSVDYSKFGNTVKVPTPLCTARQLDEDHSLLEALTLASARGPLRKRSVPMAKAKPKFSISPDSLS
The assay is described as follows: Potassium Channel Assay (FLIPR membrane potential, TE671 cells). It counts as cell-based. The note with it: TE671 human medulloblastoma cells, Membrane Potential Assay Dye, room temperature, hyperpolarization from KATP channel opening. The protocol: TE671 human medulloblastoma cells were obtained from ATCC and grown in Dulbecco's modified Eagle's medium (DMEM) supplemented with 10% fetal bovine serum, 100 U/ml penicillin and 100 U/ml streptomycine.
The day before testing, the cells were plated in black 96-well plates at 50K/well. On the day of testing, the growth media was removed, then 100 μl of FLIPR buffer (20 mM HEPES, 120 mM NaCl, 2 mM KCl, 2 mM CaCl2, 1 mM MgCl2, 5 mM Glucose) and 100 μl of Membrane Potential Assay Dye (Molecular Devices) dissolved in FLIPR buffer were added to each well. The cells were incubated at room temperature for 15 to 30 min.
The effect of test compounds on KATP channels were evaluated on a fluorometric imaging plate reader (FLIPR, Molecular Devices) at room temperature. After a baseline period, 50 μl of 5× stock solution of test compound prepared in FLIPR buffer was added and fluorescent change was monitored for 3 minutes. After this reading, glyburide, a KATP channel blocker, was added to a final concentration of 5 μM to check the specificity of the test compound as a KATP channel openers. Hyperpolarization resulting from KATP channel opening was observed as a decrease in fluorescent intensity.
Representative compounds of the present invention were tested according to the procedure described above, with results as listed in Table 7, below.
In general, pEC50 refers to the negative decadic logarithm of the EC50, by convention in mol/L. In turn, `CC1(C)Oc2ccc(C#N)cc2[C@@H](Oc2nsc3cc([N+](=O)[O-])ccc23)[C@@H]1O` [Compound 41, 3S-Hydroxy-2,2-dimethyl-4R-(6-nitro-benzo[d]isothiazol-3-yloxy)-chroman-6-carbonitrile] gave a negative logarithm of the EC50 (pEC50) of 5.39.
With `CC1(C)Oc2ccc(C#N)cc2[C@@H](SC2=NCCc3ccccc32)[C@@H]1O` [Compound 42, 4R-(3,4-Dihydro-isoquinolin-1-ylsulfanyl)-3S-hydroxy-2,2-dimethyl-chroman-6-carbonitrile], the pEC50 is under 4.52.
With `CC1(C)Oc2ccc(C#N)cc2[C@@H](Sc2nccc(C(F)(F)F)n2)[C@@H]1O` [Compound 43, 3S-Hydroxy-2,2-dimethyl-4R-(4-trifluoromethyl-pyrimidin-2-ylsulfanyl)-chroman-6-carbonitrile], the negative logarithm of the EC50 (pEC50) is under 4.52.
Take `COc1ccc2onc(O[C@@H]3c4cc(C#N)ccc4OC(C)(C)[C@H]3O)c2c1` [Compound 44, (3S,4R)-3-Hydroxy-4-(5-methoxy-benzo[d]isoxazol-3-yloxy)-2,2-dimethyl-chroman-6-carbonitrile]: the pEC50 was 4.91.
`CC1(C)C=C(n2c(N)nc3cc(Cl)ccc32)c2cc(C#N)ccc2O1` [Compound 45, 4-(2-Amino-5-chloro-benzoimidazol-1-yl)-2,2-dimethyl-2H-chromene-6-carbonitrile]: the negative logarithm of the EC50 (pEC50) was under 4.52.
With `CC1(C)C=C(Nc2nc(=O)c3ccccc3[nH]2)c2cc(C#N)ccc2O1` [Compound 46, 2,2-Dimethyl-4-(4-oxo-1,4-dihydro-quinazolin-2-ylamino)-2H-chromene-6-carbonitrile] the figure was 4.55.
The same measure for `CC1(C)C=C(Oc2ccc(-c3ccccc3)nn2)c2cc(C#N)ccc2O1` [Compound 53, 2,2-Dimethyl-4-(6-phenyl-pyridazin-3-yloxy)-2H-chromene-6-carbonitrile]: 5.00.
On to `CC1(C)C=C(n2ccnc2-c2ccc(Cl)cc2)c2cc(C#N)ccc2O1` [Compound 54, 4-[2-(4-Chloro-phenyl)-imidazol-1-yl]-2,2-dimethyl-2H-chromene-6-carbonitrile], for which the pEC50 was 5.74.
On to `CC1(C)C=C(n2nc(-c3ccc(Cl)cc3)ccc2=O)c2cc(C#N)ccc2O1` [Compound 57, 4-[3-(4-Chloro-phenyl)-6-oxo-6H-pyridazin-1-yl]-2,2-dimethyl-2H-chromene-6-carbonitrile], for which the pEC50 is 4.70.
In turn, `CC1(C)C=C(n2ccnc2-c2ccccc2)c2cc(C#N)ccc2O1` [Compound 61, 2,2-Dimethyl-4-(2-phenyl-imidazol-1-yl)-2H-chromene-6-carbonitrile] gave a pEC50 of under 4.52.
`CC1(C)C=C(n2cncc2-c2ccc(Cl)cc2)c2cc(C#N)ccc2O1` [Compound 63, 4-[5-(4-Chloro-phenyl)-imidazol-1-yl]-2,2-dimethyl-2H-chromene-6-carbonitrile] showed a pEC50 of 5.10.
In turn, `CC1(C)Oc2ccc(C#N)cc2[C@@H](Nc2nc(=O)c3cc(Cl)ccc3[nH]2)[C@@H]1O` [Compound 64, (3S,4R)-4-(6-Chloro-4-oxo-1,4-dihydro-quinazolin-2-ylamino)-3-hydroxy-2,2-dimethyl-chroman-6-carbonitrile] showed a negative-log EC50 (pEC50) of 5.04.
The compound `CC1(C)Oc2ccc(C#N)cc2[C@@H](NP(=O)(c2ccccc2)c2ccccc2)[C@@H]1O` [Compound 65] gave a negative-log EC50 (pEC50) of under 4.52.
On to `CC1(C)Oc2ccc(C#N)cc2[C@@H](NS(=O)(=O)c2cccc(Cl)c2)[C@@H]1O` [Compound 66, (3S,4R)-3-Chloro-N-(6-cyano-3-hydroxy-2,2-dimethyl-chroman-4-yl)-benzenesulfonamide], for which the negative-log EC50 (pEC50) was 5.81.
For `CC1(C)Oc2ccc(C#N)cc2[C@@H](Nc2noc3cc(Cl)ccc23)[C@@H]1O` [Compound 67, (3S,4R)-4-(6-Chloro-benzo[d]isoxazol-3-ylamino)-3-hydroxy-2,2-dimethyl-chroman-6-carbonitrile], the pEC50 was 5.21.
With `CC1(C)C=C(Oc2nsc3cc([N+](=O)[O-])ccc23)c2cc(C#N)ccc2O1` [Compound 69, (3S,4R)-2,2-Dimethyl-R-(6-nitro-benzo[d]isothiazol-3-yloxy)-2H-chromene-6-carbonitrile], the negative-log EC50 (pEC50) is under 4.52.
Compound `CC1(C)Oc2ccc(C#N)cc2[C@@H](Oc2noc3ccc(F)cc23)[C@@H]1O` [Compound 70, (3S,4R)-4-(5-Fluoro-benzo[d]isoxazol-3-yloxy)-3-hydroxy-2,2-dimethyl-chroman-6-carbonitrile] had a negative logarithm of the EC50 (pEC50) of 4.71.
`CC1(C)Oc2ccc(C#N)cc2[C@@H](S(=O)(=O)c2nc3cc(Cl)c(F)cc3[nH]2)[C@@H]1O` [Compound 72, 4R-(5-Chloro-6-fluoro-1H-benzoimidazole-2-sulfonyl)-3S-hydroxy-2,2-dimethyl-chroman-6-carbonitrile]: the pEC50 is 4.69.
Regarding `CC1(C)Oc2ccc(S(=O)(=O)c3ccccc3)cc2[C@@H](Nc2noc3cc(Cl)ccc23)[C@@H]1O` [Compound 73, (3S,4R)-6-Benzenesulfonyl-4R-(6-chloro-benzo[d]isoxazol-3-ylamino)-2,2-dimethyl-chroman-3S-ol], the pEC50 is 5.28. Compared with the last compound, the pEC50 is 0.59 log units higher.
`CC1(C)Oc2ccc(S(=O)(=O)c3ccccc3)cc2[C@@H](Nc2noc3ccc(Cl)cc23)[C@@H]1O` [Compound 74, 6-Benzenesulfonyl-4R-(5-chloro-benzo[d]isoxazol-3-ylamino)-2,2-dimethyl-chroman-3S-ol] gave a negative-log EC50 (pEC50) of 5.86.
`CC1(C)Oc2ccc(S(=O)(=O)c3ccccc3)cc2[C@@H](n2oc3ccc(Cl)cc3c2=O)[C@@H]1O` [Compound 76, 2-(6-Benzenesulfonyl-3S-hydroxy-2,2-dimethyl-chroman-4-yl)-5-chloro-4R-benzo[d]isoxazol-3-one] gave a pEC50 of 6.40.
`CC1(C)Oc2ccc(S(=O)(=O)c3ccccc3)cc2[C@@H](Oc2noc3cc(Cl)ccc23)[C@@H]1O` [Compound 77, 6-Benzenesulfonyl-4R-(6-chloro-benzo[d]isoxazol-3-yloxy)-2,2-dimethyl-chroman-3S-ol] gave a pEC50 of under 4.52.
`CC1(C)Oc2ccc(S(=O)(=O)c3ccccc3)cc2[C@@H](n2oc3cc(Cl)ccc3c2=O)[C@@H]1O` [Compound 78, 2-(6-Benzenesulfonyl-3S-hydroxy-2,2-dimethyl-chroman-4-yl)-6-chloro-4R-benzo[d]isoxazol-3-one] showed a negative logarithm of the EC50 (pEC50) of 7.00.
In the case of `CCN(CC)S(=O)(=O)c1ccc2c(c1)[C@@H](Oc1noc3cc(Cl)ccc13)[C@H](O)C(C)(C)O2` [Compound 79, 4R-(6-Chloro-benzo[d]isoxazol-3-yloxy)-3S-hydroxy-2,2-dimethyl-chroman-6-sulfonic acid diethylamide], the negative-log EC50 (pEC50) is under 4.52.
With `CCN(CC)S(=O)(=O)c1ccc2c(c1)[C@@H](Nc1noc3cc(Cl)ccc13)[C@H](O)C(C)(C)O2` [Compound 81, 4R-(6-Chloro-benzo[d]isoxazol-3-ylamino)-3S-hydroxy-2,2-dimethyl-chroman-6-sulfonic acid diethylamide] the figure was 4.87; with `CCN(CC)S(=O)(=O)c1ccc2c(c1)[C@@H](Nc1noc3c(Cl)cccc13)[C@H](O)C(C)(C)O2` [Compound 82, 4R-(7-Chloro-benzo[d]isoxazol-3-ylamino)-3S-hydroxy-2,2-dimethyl-chroman-6-sulfonic acid diethylamide], 4.58; with `CC1(C)Oc2ccc(S(=O)(=O)N3CCCCC3)cc2[C@@H](Oc2noc3cc(Cl)ccc23)[C@@H]1O` [Compound 83, 4R-(6-Chloro-benzo[d]isoxazol-3-yloxy)-2,2-dimethyl-6-(piperidine-1-sulfonyl)-chroman-3S-ol], under 4.52.
For the compound `CC1(C)Oc2ccc(S(=O)(=O)N3CCCCC3)cc2[C@@H](n2oc3cc(Cl)ccc3c2=O)[C@@H]1O` [Compound 84, 6-Chloro-2-[3S-hydroxy-2,2-dimethyl-6-(piperidine-1-sulfonyl)-chroman-4-yl]-R-benzo[d]isoxazol-3-one], the negative logarithm of the EC50 (pEC50) was 5.97.
Take `CCN(CC)S(=O)(=O)c1ccc2c(c1)[C@@H](Oc1noc3ccc(Cl)cc13)[C@H](O)C(C)(C)O2` [Compound 85, 4R-(5-Chloro-benzo[d]isoxazol-3-yloxy)-3S-hydroxy-2,2-dimethyl-chroman-6-sulfonic acid diethylamide]: the negative-log EC50 (pEC50) was under 4.52.
`CCN(CC)S(=O)(=O)c1ccc2c(c1)[C@@H](n1oc3ccc(Cl)cc3c1=O)[C@H](O)C(C)(C)O2` [Compound 86, 4R-(5-Chloro-3-oxo-3H-benzo[d]isoxazol-2-yl)-3S-hydroxy-2,2-dimethyl-chroman-6-sulfonic acid diethylamide] had a negative logarithm of the EC50 (pEC50) of under 4.52.
For `CC1(C)Oc2ccc(S(=O)(=O)c3ccccc3)cc2[C@@H](Nc2noc3c(Cl)cccc23)[C@@H]1O` [Compound 87, (3S,4R)-6-Benzenesulfonyl-4R-(7-chloro-benzo[d]isoxazol-3-ylamino)-2,2-dimethyl-chroman-3S-ol], the pEC50 was under 4.52.
The same measure for `CC1(C)Oc2ccc(S(=O)(=O)N3CCCCC3)cc2[C@@H](Nc2noc3ccc(Cl)cc23)[C@@H]1O` [Compound 88, 4R-(5-Chloro-benzo[d]isoxazol-3-ylamino)-2,2-dimethyl-6-(piperidine-1-sulfonyl)-chroman-3S-ol]: under 4.52.

Source of the values: US7812183B2, “Benzopyran derivatives as potassium channel openers” (Janssen Pharmaceutica NV, priority 2005, dated 2010).
